Earlier results, collected in patent EP0707853B1, “Muscle relaxant pharmaceutical compositions” (priority 1994, dated 1996).

Conditions: for pI: isoionic point; for pI / pKa: Handbook of Chemistry and Physics, ed. 69, page C 107; for pKa: pKa values for basic groups; for isoionic point (pI): value given in the example text as the pH the solution is brought to

| Compound | pI | pKa | isoionic point (pI) |
| --- | --- | --- | --- |
| C[C@H](N)C(=O)O [alanine] | 6,1 | 9,87 | – |
| NCC(=O)O [glycine] | 6,06 | – | 6.1 |
| O=C(O)[C@@H]1C[C@@H](O)CN1 [hydroxyproline] | 5,82 | 9,73 | – |
| CSCC[C@H](N)C(=O)O [methionine] | 5,91 | 10,6 | – |
| O=C(O)[C@@H]1CCCN1 [proline] | 6,3 | 9,87 | – |
| N[C@@H](CO)C(=O)O [serine] | 5,68 | 9,15 | 5.67 |
| CC(C)[C@H](N)C(=O)O [valine] | 6,0 | 9,72 | – |
